Laboratory results published in patent publication US5292733A, “Cephalosporin compounds” (Lucky Limited, priority 1991, dated 1994).
Converted amounts (≈) assume the structure as drawn.

Tests used:
Experiment in all cases: Antibacterial activity MIC, two-fold agar dilution
Type in all cases: cell-based
[1] = system: Acinetobacter calcoaceticus ATCC 15473; settings: Acinetobacter calcoaceticus ATCC 15473, Muller-Hinton agar, 37° C., 20 hours; for MIC: ATCC15473, read-out: Antibacterial Activity MIC
Procedure, shortened: (§1)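 Inoculum: 2 μl, 10^7 CFU per ml. Medium: Muller-Hinton agar containing compound in two-fold serial dilutions. Conditions: 37° C., 20 hours; endpoint MIC.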

[2] = system: Bacillus cereus ATCC 11778; settings: Bacillus cereus ATCC 11778, Muller-Hinton agar, 37° C., 20 hours; for MIC: ATCC11778, read-out: Antibacterial Activity MIC
Procedure, shortened: as §1

[3] = system: Bacillus megaterium ATCC 9885; settings: Bacillus megaterium ATCC 9885, Muller-Hinton agar, 37° C., 20 hours; for MIC: Priestia megaterium, ATCC9885, read-out: Antibacterial Activity MIC
Procedure, shortened: as §1

[4] = system: Citrobacter freundii ATCC 8090; settings: Citrobacter freundii ATCC 8090, Muller-Hinton agar, 37° C., 20 hours; for MIC: ATCC8090, read-out: Antibacterial Activity MIC
Procedure, shortened: as §1

[5] = system: Enterobacter aerogenes ATCC 29751; settings: Enterobacter aerogenes ATCC 29751, Muller-Hinton agar, 37° C., 20 hours; for MIC: Klebsiella aerogenes, ATCC29751, read-out: Antibacterial Activity MIC
Procedure, shortened: as §1

[6] = system: Enterobacter cloacae ATCC 27508; settings: Enterobacter cloacae ATCC 27508, Muller-Hinton agar, 37° C., 20 hours; for MIC: ATCC27508, read-out: Antibacterial Activity MIC
Procedure, shortened: as §1

[7] = system: Escherichia coli ATCC 10536; settings: 37° C., 20 hours; for MIC: ATCC10536, Muller-Hinton agar
Procedure, shortened: as §1

[8] = system: Escherichia coli ATCC 25922; settings: 37° C., 20 hours; for MIC: ATCC25922, Muller-Hinton agar
Procedure, shortened: as §1

[9] = system: Klebsiella pneumoniae ATCC 10031; settings: Klebsiella pneumoniae ATCC 10031, Muller-Hinton agar, 37° C., 20 hours; for MIC: ATCC10031, read-out: Antibacterial Activity MIC
Procedure, shortened: as §1

[10] = system: Micrococcus luteus ATCC 9341; settings: Micrococcus luteus ATCC 9341, Muller-Hinton agar, 37° C., 20 hours; for MIC: ATCC9341, read-out: Antibacterial Activity MIC
Procedure, shortened: as §1

[11] = system: Morganella morganii ATCC 8076h; settings: Muller-Hinton agar, 37° C., 20 hours; for MIC: ATCC8076H
Procedure, shortened: as §1

[12] = system: Proteus mirabilis ATCC 25933; settings: Proteus mirabilis ATCC 25933, Muller-Hinton agar, 37° C., 20 hours; for MIC: ATCC25933, read-out: Antibacterial Activity MIC
Procedure, shortened: as §1

[13] = system: Proteus vulgaris ATCC 6059; settings: Proteus vulgaris ATCC 6059, Muller-Hinton agar, 37° C., 20 hours; for MIC: ATCC6059, read-out: Antibacterial Activity MIC
Procedure, shortened: as §1

[14] = system: Providencia rettgeri ATCC 9250; settings: 37° C., 20 hours; for MIC: ATCC9250, Muller-Hinton agar
Procedure, shortened: as §1

[15] = system: Pseudomonas aeruginosa ATCC 10145; settings: Pseudomonas aeruginosa ATCC 10145, Muller-Hinton agar, 37° C., 20 hours; for MIC: ATCC10145, read-out: Antibacterial Activity MIC
Procedure, shortened: as §1

[16] = system: Pseudomonas aeruginosa ATCC 25619; settings: Pseudomonas aeruginosa ATCC 25619, Muller-Hinton agar, 37° C., 20 hours; for MIC: ATCC25619, read-out: Antibacterial Activity MIC
Procedure, shortened: as §1

[17] = system: Pseudomonas aeruginosa ATCC 27853; settings: Pseudomonas aeruginosa ATCC 27853, Muller-Hinton agar, 37° C., 20 hours; for MIC: ATCC27853, read-out: Antibacterial Activity MIC
Procedure, shortened: as §1

[18] = system: Salmonella typhimurium ATCC 14028; settings: Salmonella typhimurium ATCC 14028, Muller-Hinton agar, 37° C., 20 hours; for MIC: Salmonella enterica, read-out: Antibacterial Activity MIC
Procedure, shortened: as §1

[19] = system: Serratia marcescens ATCC 27117; settings: Serratia marcescens ATCC 27117, Muller-Hinton agar, 37° C., 20 hours; for MIC: ATCC27117, read-out: Antibacterial Activity MIC
Procedure, shortened: as §1

[20] = system: Shigella flexneri ATCC 11836; settings: 37° C., 20 hours; for MIC: ATCC11836, Muller-Hinton agar
Procedure, shortened: as §1

[21] = system: Shigella sonnei ATCC 11060; settings: 37° C., 20 hours; for MIC: ATCC11060, Muller-Hinton agar
Procedure, shortened: as §1

[22] = system: Staphylococcus aureus ATCC 10537; settings: Staphylococcus aureus ATCC 10537, Muller-Hinton agar, 37° C., 20 hours; for MIC: ATCC10537, read-out: Antibacterial Activity MIC
Procedure, shortened: as §1

[23] = system: Staphylococcus aureus ATCC 6538p; settings: Staphylococcus aureus ATCC 6538p, Muller-Hinton agar, 37° C., 20 hours; for MIC: ATCC6538P, read-out: Antibacterial Activity MIC
Procedure, shortened: as §1

[24] = system: Staphylococcus epidermidis ATCC 12228; settings: Staphylococcus epidermidis ATCC 12228, Muller-Hinton agar, 37° C., 20 hours; for MIC: ATCC12228, read-out: Antibacterial Activity MIC
Procedure, shortened: as §1

[25] = system: Streptococcus faecalis ATCC 29212; settings: Streptococcus faecalis ATCC 29212, Muller-Hinton agar, 37° C., 20 hours; for MIC: Enterococcus faecalis, ATCC29212, read-out: Antibacterial Activity MIC
Procedure, shortened: as §1

Molecule: CCO/N=C(\C(=O)N[C@@H]1C(=O)N2C(C(=O)[O-])=C(CSc3cc(N)[n+](C)c(N)n3)CS[C@H]12)c1nsc(N)n1 [Compound I-10, (6R,7R)-7-[(Z)-2-(5-amino-1,2,4-thiadiazol-3-yl)-2-(ethoxyimino)acetamido]-3-(2,6-diamino-1-methylpyrimidinium-4-yl)thiomethyl-3-cephem-4-carboxylate]
- MIC [1]: 4 µg/mL (≈ 7.06 µM)
- MIC [2]: 128 µg/mL (≈ 226 µM)
- MIC [3]: 0.13 µg/mL (≈ 0.229 µM)
- MIC [4]: 0.13 µg/mL (≈ 0.229 µM)
- MIC [5]: 0.25 µg/mL (≈ 0.441 µM)
- MIC [6]: 0.016 µg/mL (≈ 0.0282 µM)
- MIC [7]: 0.13 µg/mL (≈ 0.229 µM)
- MIC [8]: 0.25 µg/mL (≈ 0.441 µM)
- MIC [9]: ≤ 0.008 µg/mL
- MIC [10]: 0.016 µg/mL (≈ 0.0282 µM)
- MIC [11]: 0.016 µg/mL (≈ 0.0282 µM)
- MIC [12]: 0.25 µg/mL (≈ 0.441 µM)
- MIC [13]: 0.25 µg/mL (≈ 0.441 µM)
- MIC [14]: ≤ 0.008 µg/mL
- MIC [15]: 1 µg/mL (≈ 1.76 µM)
- MIC [16]: 0.5 µg/mL (≈ 0.882 µM)
- MIC [17]: 1 µg/mL (≈ 1.76 µM)
- MIC [18]: 0.063 µg/mL (≈ 0.111 µM)
- MIC [19]: 0.13 µg/mL (≈ 0.229 µM)
- MIC [20]: 0.031 µg/mL (≈ 0.0547 µM)
- MIC [21]: 0.25 µg/mL (≈ 0.441 µM)
- MIC [22]: 0.5 µg/mL (≈ 0.882 µM)
- MIC [23]: 0.5 µg/mL (≈ 0.882 µM)
- MIC [24]: 0.25 µg/mL (≈ 0.441 µM)
- MIC [25]: 8 µg/mL (≈ 14.1 µM)

Molecule: (6R,7R)-7-[(Z)-2-(2-aminothiazol-4-yl)-2-(2-propyn-1-oxyimino)acetamido]-3-(2,6-diamino-3-methylpyrimidinium-4-yl)thiomethyl-3-cephem-4-carboxylate [Compound I-9]
- Antibacterial Activity MIC [1]: 2 µg/mL
- Antibacterial Activity MIC [2]: 64 µg/mL
- Antibacterial Activity MIC [3]: 0.13 µg/mL
- Antibacterial Activity MIC [4]: 0.13 µg/mL
- Antibacterial Activity MIC [5]: 0.5 µg/mL
- Antibacterial Activity MIC [6]: 0.13 µg/mL
- Antibacterial Activity MIC ([7]; Muller-Hinton agar): 0.016 µg/mL
- Antibacterial Activity MIC ([8]; Muller-Hinton agar): 0.063 µg/mL
- Antibacterial Activity MIC [9]: 0.063 µg/mL
- Antibacterial Activity MIC [10]: 0.063 µg/mL
- Antibacterial Activity MIC [11]: <= 0.008 μg/ml
- Antibacterial Activity MIC [12]: 0.016 µg/mL
- Antibacterial Activity MIC [13]: 0.016 µg/mL
- Antibacterial Activity MIC ([14]; Muller-Hinton agar): <= 0.008 μg/ml
- Antibacterial Activity MIC [15]: 16 µg/mL
- Antibacterial Activity MIC [16]: 2 µg/mL
- Antibacterial Activity MIC [17]: 8 µg/mL
- Antibacterial Activity MIC [18]: 0.5 µg/mL
- Antibacterial Activity MIC [19]: 0.5 µg/mL
- Antibacterial Activity MIC ([20]; Muller-Hinton agar): 0.13 µg/mL
- Antibacterial Activity MIC ([21]; Muller-Hinton agar): 0.13 µg/mL
- Antibacterial Activity MIC [22]: 0.25 µg/mL
- Antibacterial Activity MIC [23]: 0.25 µg/mL
- Antibacterial Activity MIC [24]: 0.5 µg/mL
- Antibacterial Activity MIC [25]: > 128 µg/mL

Molecule: CCO/N=C(\C(=O)N[C@@H]1C(=O)N2C(C(=O)[O-])=C(CSc3cc(N)[n+](CC)c(N)n3)CS[C@H]12)c1nsc(N)n1 [Compound I-11, (6R,7R)-7-[(Z)-2-(5-amino-1,2,4-thiadiazol-3-yl)-2-(ethoxyimino)acetamido]-3-(2,6-diamino-1-ethylpyrimidinium-4-yl)thiomethyl-3-cephem-4-carboxylate]
- MIC [1]: 4 µg/mL (≈ 6.89 µM)
- MIC [2]: 128 µg/mL (≈ 220 µM)
- MIC [3]: 0.13 µg/mL (≈ 0.224 µM)
- MIC [4]: 0.063 µg/mL (≈ 0.108 µM)
- MIC [5]: 0.13 µg/mL (≈ 0.224 µM)
- MIC [6]: ≤ 0.008 µg/mL
- MIC [7]: 0.13 µg/mL (≈ 0.224 µM)
- MIC [8]: 0.25 µg/mL (≈ 0.431 µM)
- MIC [9]: ≤ 0.008 µg/mL
- MIC [10]: 0.016 µg/mL (≈ 0.0276 µM)
- MIC [11]: 0.016 µg/mL (≈ 0.0276 µM)
- MIC [12]: 0.5 µg/mL (≈ 0.861 µM)
- MIC [13]: 0.5 µg/mL (≈ 0.861 µM)
- MIC [14]: ≤ 0.008 µg/mL
- MIC [15]: 2 µg/mL (≈ 3.44 µM)
- MIC [16]: 0.5 µg/mL (≈ 0.861 µM)
- MIC [17]: 1 µg/mL (≈ 1.72 µM)
- MIC [18]: 0.063 µg/mL (≈ 0.108 µM)
- MIC [19]: 0.13 µg/mL (≈ 0.224 µM)
- MIC [20]: 0.031 µg/mL (≈ 0.0534 µM)
- MIC [21]: 0.25 µg/mL (≈ 0.431 µM)
- MIC [22]: 0.5 µg/mL (≈ 0.861 µM)
- MIC [23]: 0.5 µg/mL (≈ 0.861 µM)
- MIC [24]: 0.25 µg/mL (≈ 0.431 µM)
- MIC [25]: 8 µg/mL (≈ 13.8 µM)
